Assay results reported in US12256764B2 (priority 2017, dated 2025).

Tested on: rats
Assay: Acute oral toxicity (LD50) in rats
Details: conversion of the MSDS LD50

Compound: OCC(O)CO [Vegetable glycerin, glycerol]
- LD50 oral rat dosage expressed for a 180 pound male: 36 ounces
